The target in one assay is T1, human LPA1 (Homo sapiens, UniProt Q92633).
T1 construct: expressed in transfected cells
Briefly: Functional calcium mobilization assay. Conditions: 24 h pre-incubation prior to LPA addition; read-out: Functional LPA1 Ca^+2 mobilization. It is filed as cell-based. How it is done:
Intracellular calcium was monitored with Fluo-4 (Molecular Devices). Dye was made up in HBSS with 0.1% (w/v) BSA and 2.5 mM probenecid. Plates were read using a FlexStation 3 (Molecular Devices, Sunnyvale, CA). Calcium response was generated by the simultaneous addition of the EC80 of LPA.
On the day of assay, media was removed and replaced with dye and 3× fresh compound in HBSS−/− with 0.1% BSA and incubated for 1 h.
30-min assay: Antagonists were added to plates after dye loading was complete at a 3× concentration in HBSS−/− with 0.1% BSA and incubated for 30 min.

For the next assay, the system named is microglia. Briefly: Microglial myelin debris phagocytosis assay. Conditions: any concentration, activated microglia, 90 min myelin debris. Format: cell-based, rat. How it is done: Fluoromyelin-labeled myelin debris was added for 90 min and then the cultures were fixed. IBA1^+/fluoromyelin^+ cells were quantified and normalized to total IBA1^+ cells.
For phagocytosis, microglia were harvested from cortical cultures generated from P2 rats. Cortices were isolated, meninges removed, minced and digested in 0.05% trypsin (Invitrogen, Carlsbad, CA, Carlsbad, CA) for 15 min at 37 °C. Tissue was allowed to settle, trypsin removed and HBSS (Corning, Glendale, AZ) with 20% FBS (20% HBSS) was added to halt further digestion. Tissue was washed again in 20% HBSS and resuspended in DMEM with 10% FBS and penicillin/streptomycin (10% DMEM). Cells were plated in a T150 flask and cultured for 10 days with media changes every other day. Microglia were mechanically isolated by tapping flask against the hood surface. Microglia were transferred to a conical and centrifuged at 800 × g for 15 min and resuspended in 10% DMEM, plated in 96 wells at a density of 5000/well and cultured for 3 days. […] Fluoromyelin labeled myelin debris was added to each well and incubated for 90 min. Microglia were then fixed and immunostained for IBA1 (Invitrogen, Carlsbad, CA, Carlsbad, CA). […]
Supplemental Figure 7. […] Total IBA1^+ and IBA1^+/fluoromyelin^+ cells were counted. […]

Assay [1] concerns human brain meningeal fibroblasts. Briefly: LPA-induced activation of human meningeal fibroblasts (COL1+ area). Format: cell-based. Particulars: LPA stimulation, read-out: IC50 of inhibition of increase in COL1+ area. How it is done: Recent work from Dorrier et al., has implicated persistent fibrotic scarring in the CNS in the mouse EAE model and that the contributing cells were of meningeal origin. […] We cultured primary rat or human brain meningeal fibroblasts and applied 10 µM LPA to induce activation. Upon LPA stimulation, we saw a change in morphology that could be quantified as a change in collagen I (COL1^+) area.
Meningeal fibroblasts were obtained from IxCells (San Diego, CA) and plated at 5000 cells per well according to manufacturer's protocol. […] Cells were stained and imaged as described with rat meningeal fibroblasts.
Supplemental Figure 8. […] A. Rat primary meningeal fibroblasts were isolated and serum starved overnight. […] Cells were fixed and immunostained with a collagen 1a1 antibody (green) and counterstained with Hoechst (blue). […] Cells were fixed and immunostained with a collagen I antibody (green) and counterstained with Hoechst (blue). […] C. […] Collagen 1a1 (green), Hoechst (blue). Scale bar 50 µm. One-way ANOVA with Dunnett’s; * p<0.05, ** p<0.01, *** p<0.001, **** p<0.0001.

Assay [2] relates to human cortical slice cultures. Briefly: Human cortical slice culture, Mbp transcript by qPCR. It is filed as cell-based. Conditions: 9 days treatment; read-out: EC50 of Mbp increase by qPCR. How it is done: Cortical slices from regions containing both white and gray matter were generated from fresh human adult donor tissue and cultured for 10 days.
Human donor brain was received 14 h after death on wet ice. Upon receipt, the brain was immediately placed into-ice cold DPBS without calcium or magnesium. Cortical regions containing gray-white border were isolated then sliced on a McIlwain tissue chopper set at 400 µm thickness. […] Slices were then processed for qPCR or immunohistochemistry.
Evaluation of Mbp transcript in human brain slice culture: After compound treatment, slices were immediately transferred to lysis buffer and RNA extracted using the RNEasy Mini kit (Qiagen). Reverse transcription was performed using QScript (QuantaBio) followed by qPCR with Perfecta PCR SuperMix (QuantaBio) on a StepOne Plus Thermocycler (ABI). Primers used were as follows: 18S rRNA F: […] R: […]; Mbp: […] R: […]. Cycling parameters: 95 °C 30 s, then repeat 45×: 95 °C for 5 s, 60 °C for 15 s, followed by melt curve analysis. Data was calculated using 2^−ΔΔCt , normalizing to 18S RNA and vehicle.

The test system of a further assay is MOG-EAE mouse model. Briefly: MOG-EAE mouse model, body weight and clinical score. Format: in vivo. How it is done:
This model recapitulates several of the features thought to occur in MS and is a widely used model of inflammatory demyelination.
On Day 0, EAE was induced using a MOG35–55/CFA Emulsion PTX Hooke Kit™ (Hooke Laboratories, Lawrence, MA). Briefly, per manufacturer’s instructions, each mouse was administered a total of 0.2 ml emulsion delivered via dorsal subcutaneous injections of 0.1 ml each to the mid-scapula and lower lumbar regions. Pertussis toxin was prepared per lot-specific instructions and administered via intraperitoneal injection of 0.1 ml (200 ng) on Day 0, 2 h post-MOG administration, and again on Day 1, 24 h post-MOG.
Each treatment group contained 12 mice, except for the age-matched control group which contained 8 mice.
Body weights and clinical scores were recorded daily.

One may read the pEC50 as the EC50 on a negative log10 scale, so that one unit is a factor of ten.

The structures appear in SMILES notation. pEC50, pIC50: −log10 of the molar value.

T1 sequence (Q92633 whole entry): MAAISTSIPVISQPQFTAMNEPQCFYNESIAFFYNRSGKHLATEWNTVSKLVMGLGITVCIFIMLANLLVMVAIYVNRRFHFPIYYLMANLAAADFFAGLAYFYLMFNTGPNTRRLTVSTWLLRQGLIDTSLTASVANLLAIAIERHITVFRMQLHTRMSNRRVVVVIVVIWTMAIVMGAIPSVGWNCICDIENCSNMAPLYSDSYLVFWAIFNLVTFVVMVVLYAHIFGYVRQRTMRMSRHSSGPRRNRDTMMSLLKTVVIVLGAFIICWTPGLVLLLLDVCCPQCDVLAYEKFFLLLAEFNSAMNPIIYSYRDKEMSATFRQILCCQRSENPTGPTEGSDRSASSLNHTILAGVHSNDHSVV

As to `COc1ccc(NC(=O)N(c2ccccc2C(C)C)C2CCC(C(=O)O)CC2)c(OC(F)F)n1` (centres unmarked) [PIPE-791], at human LPA1, the pIC50 is 8.00. The “effect on myelin phagocytosis compared to vehicle” value with microglia is “No significant decrease”. For the same compound, the pIC50 in assay [1] was 8.35. Further, the pEC50 in assay [2] is 8.38. Further, in the assay on MOG-EAE mouse model (0.3 mg/kg oral once daily), the “clinical score by day 24” value is given as 1.5, the disease onset is 14 days and the peak clinical score is given as 2.1. For the same compound, in the assay on MOG-EAE mouse model (3 mg/kg oral once daily), the “clinical score at study end” value is 1.5, the disease onset is 14 days and the peak clinical score turned out to be 1.4. The “cumulative body weight (day 0 to 24)” value with MOG-EAE mouse model (0.3 and 3 mg/kg oral once daily) is “Significant increases”.

These data come from publication PMC11079064, “Discovery of a brain penetrant small molecule antagonist targeting LPA1 receptors to reduce neuroinflammation and promote remyelination in multiple sclerosis” (Scientific Reports, 2024).
